Experiments:
[1] = Sweat malodor coverage, panel sniff test with isovaleric acid model; set-up: species or system human; details: compound 10% in solvent; 1 h equilibration in 8 oz jar; 15-18 panelists; scale 1 (No Coverage) to 5 (Excellent Coverage)
Procedure: (§1) It is known that the perspirative malodors of human body, particularly sweat, are associated with the production of several unpleasant smelling organic acids, particularly isovaleric acid (“IVA”). The commercial sample of this malodorous material (commercially available at Sigma-Aldrich Inc.) was thus used as a model compound to assess the effectiveness of sweat malodor counteractants. The mold/mildew malodor model was prepared based on applicant's proprietary formulations for assessing the effectiveness of mold/mildew malodor counteractants.
(§2) Two aluminum dishes were placed in an 8 oz glass jar. A malodor material was pipetted into one aluminum dish, and a compound of the present invention diluted in a solvent (10%) or a solvent alone control was pipetted into the other aluminum dish. The jar was then capped and the samples were allowed to equilibrate for one hour before the testing.
(§3) Test samples were presented in a blind and random order to 15-18 internal panelists (consisting of men/women with an age range of 25 to 55). However, different odor samples were arranged in an alternative order (for example, sweat, mold/mildew, sweat, mold/mildew, and etc.).
(§4) The panelists were instructed to take the steps of i) sniff jars containing only the malodor materials for familiarization prior to the testing; ii) uncap a jar; iii) place their noses at a distance of about 3-4 inches above the opening; iv) take short sniffs for 3 seconds; and v) provide a rank of the malodor coverage using an intensity scale of 1 to 5, where 1 represents “No Coverage”, 3 represents “Moderate Coverage”, and 5 represents “Excellent Coverage”. The means for each sample was then calculated.

[2] = Mold/mildew malodor coverage, panel sniff test with proprietary malodor model; set-up: species or system human; details: compound 10% in solvent; 1 h equilibration in 8 oz jar; 15-18 panelists; scale 1 (No Coverage) to 5 (Excellent Coverage)
Procedure: as §1, §2, §3, §4

Vapor pressure = format: physicochemical

| Vapor Pressure (Vapor pressure) [µg/L] | Structure (SMILES) | Sweat Malodor, mean rank of malodor coverage [1] | Mold/Mildew Malodor, mean rank of malodor coverage [2] |
| --- | --- | --- | --- |
| 28652 | CC1=CCC2(C)CCC1C2 (stereo not drawn) [Structure I, 2,5-dimethyl-bicyclo[3.2.1]oct-2-ene] | 3.90 | 3.32 |
| 1091 | CC(=O)OC1CC2(C)CCC(C2)C1C (stereo not drawn) [Structure IV, acetic acid 1,4-dimethyl-bicyclo[3.2.1]oct-3-yl ester] | 3.09 | 2.96 |
| 406 | COC(=O)OC1CC2(C)CCC(C2)C1C (stereo not drawn) [Structure V, carbonic acid 1,4-dimethyl-bicyclo[3.2.1]oct-3-yl ester methyl ester] | 2.42 | 2.49 |
